From patent US7265152B2 (ViroPharma Incorporated, priority 2002, dated 2007)
pEC50, pIC50: −log10 of the molar value. Read-outs that look alike come from different tables or passages of the source.

Tests used:
HCV NS5B = target: T1, HCV NS5B (Hepatitis C virus genotype 1b, UniProt Q9WMX2); experiment: Inhibition of viral RNA-dependent RNA polymerase (RdRp), in vitro biochemical assay; set-up: species or system HCV genotype 1b virus (BB7); details: read-out: HCV pol-BB7 IC50
T1 construct: fusion protein, of which the carboxyl terminal 21 amino acids were removed to enhance its solubility; His tag (GSHHHHHH); made in house; host or cells: E. coli
Description: The HCV NS5B-directed RdRp activity was established and characterized in a standard in vitro biochemical assay using a purified HCV NS5B protein derived from the consensus sequence of a patient infected with HCV genotype 1b virus (BB7). (See Blight K J et al., Science. 2000, 290:1972-4). The NS5B consensus sequence was cloned and expressed in E. coli as a histidine tagged (GSHHHHHH) fusion protein, of which the carboxyl terminal 21 amino acids were removed to enhance its solubility.
In addition to evaluating their activity in the replicon assay, representative compounds within the scope of the present invention, as shown in examples 1-453 of Table 1, were also evaluated for antiviral activity using this assay. A measure of the inhibitory activity of compounds of the invention may be expressed as IC50 values. IC50 values represent the concentration of the compound at which 50% of the RdRp activity is inhibited. […] These low concentrations of test compounds required to achieve 50% inhibition of the RdRp activity indicate that the compounds of the invention are effective at inhibiting RNA synthesis by viral RdRp enzymes.

[1] = test system: HCV replicon (BB7 sequence) in Huh-7-Clone A cells; experiment: HCV replicon assay: ELISA of NS5A protein in replicon-containing cells (Inhibition of Viral RNA Replication); format: cell-based; details: for pEC50: read-out: Replicon
Description: Antiviral activity of representative compounds of the invention was first evaluated in a human liver-derived cell line (Huh-7-Clone A) containing the HCV replicon (BB7 sequence) (See Lohmann et al. Science. 1999, 285:110-3; Blight K J et al., Science. 2000, 290:1972-4; Pietschmann, T. et al., J. Virol. 2001, 73:1252-1264; and Lohmann, V. et al., J. Virol. 2001, 75:1437-1449). The HCV replicon is a subgenomic viral RNA that expresses the HCV proteins required for its own replication. These proteins include non-structural proteins NS3, NS4A, NS4B, NS5A and NS5B. The replicon also contains a foreign gene encoding a drug-selectable marker (neomycin phosphotransferase) to allow for G418 (neomycin) selection of cells that contain the replicon.
An ELISA (enzyme-linked immunosorbant assay) was used to determine the effect of compounds within the scope of the invention on the amount of HCV NS5A protein produced after a 72-hour incubation of the replicon-containing cells in the presence of varying concentrations of compound. COSTAR® 96-well cell culture plates were used but other known cell culture plates may be used. After incubation, media is removed from wells and the cells are fixed to the assay plate using 0.05% glutaraldehyde. The glutaraldehyde is then washed off using phosphate-buffered saline (PBS) following a 1 hour incubation and cells are blocked for non-specific antibody binding using for example SUPERBLOCK® reagent (blocking buffer) in PBS. The blocking agent is rinsed from the cells with PBS after 1 hour at 37° C. and primary monoclonal antibody is added to each well containing compound. Primary antibody is incubated for 1 hour at 37° C. and rinsed 3 times with PBS containing 0.02% TWEEN-20™ before addition of Horseradish Peroxidase (HRP) conjugated secondary antibody. HRP is incubated for 1 hour at 37° C. and rinsed several times, first with PBS/TWEEN-20™ followed by PBS alone. To quantify peroxidase activity, 3,3′,5, 5′-tetramethylbenzidine (TMB) substrate is added to the plate and after 30 minutes, the plates are read in an ELISA plate reader at an OD of 650 nm. Compound dose response was measured in an 8-point dose curve diluted serially to determine the inhibitory concentration at 50% (EC50 value). […] Ranges of 50% effective concentrations (EC50s) for representative compounds within the scope of this invention are listed in Table 1. Preferred compounds have 50% effective concentrations at about 30 μM or less, more preferred compounds have 50% effective concentrations at about 5 μM or less, and most preferred compounds have 50% effective concentrations at about 0.5 μM or less.

[2] = ranges of EC50 in HCV replicon assay
[3] = HCV NS5B RdRp, BB7, activity class
[4] = HCV replicon assay, ranges of EC50
[5] = HCV NS5B polymerase, BB7 (genotype 1b), values given as range classes A-D
[6] = HCV replicon assay, ranges of 50% effective concentration (EC50)
[7] = HCV NS5B RdRp, BB7, class symbols A-D
[8] = purified His-tagged NS5B (BB7), carboxyl terminal 21 amino acids removed
[9] = Hepatitis C virus, Huh-7-Clone A, NS5A ELISA, 72-hour incubation, ranges of EC50
[10] = Hepatitis C virus, HCV replicon assay, ranges of 50% effective concentration (EC50)

Row | Compound | pIC50 (HCV NS5B; [8]) | pEC50 [1, 9] | also measured
1 | 2-(2,4-Difluoro-phenyl)-5-isopropoxy-benzofuran-3-carboxylic acid methylamide [Example 91] |  |  | pIC50 (HCV NS5B; HCV NS5B RdRp, BB7 genotype 1b): ≥ 6.30; pEC50 [1, 2]: > 4.52
2 | 2-(4-Bromo-phenyl)-5-isopropoxy-benzofuran-3-carboxylic acid methylamide [Example 104] |  |  | pIC50 (HCV NS5B; HCV NS5B RdRp, BB7 genotype 1b): ≥ 6.30; pEC50 [1, 2]: > 5.00
3 | 2-(4-Fluoro-phenyl)-5-hydroxy-6-[methanesulfonyl-(2-oxo-propyl)-amino]-benzofuran-3-carboxylic acid methylamide [Example 354] |  |  | pIC50 (HCV NS5B; [3]): 5.30 to 6.30; pEC50 [1, 4]: > 5.00
4 | 2-(4-Fluoro-phenyl)-5-hydroxy-6-morpholin-4-yl-benzofuran-3-carboxylic acid methylamide [Example 124] |  |  | pIC50 (HCV NS5B; HCV NS5B RdRp, BB7 genotype 1b): 5.30 to 6.30; pEC50 [1, 2]: > 5.00
5 | 2-(4-Fluoro-phenyl)-5-isopropoxy-6-ureido-benzofuran-3-carboxylic acid methylamide [Example 135] |  |  | pIC50 (HCV NS5B; HCV NS5B RdRp, BB7 genotype 1b): ≥ 6.30; pEC50 [1, 2]: > 5.00
6 | 2-(4-Fluoro-phenyl)-5-methoxy-6-(2H-[1,2,4]triazol-3-yl)-benzofuran-3-carboxylic acid methylamide [Example 358] |  |  | pIC50 (HCV NS5B; [3]): ≥ 6.30; pEC50 [1, 4]: > 6.00
7 | 2-(4-Fluoro-phenyl)-5-methoxy-6-(5-methyl-[1,3,4]oxadiazol-2-yl)-benzofuran-3-carboxylic acid methylamide [Example 430] |  |  | pIC50 (HCV NS5B; [5]): ≥ 6.30; pEC50 [1, 6]: > 5.00
8 | 2-(4-Fluoro-phenyl)-6-(1H-imidazol-2-yl)-5-methoxy-benzofuran-3-carboxylic acid methylamide [Example 296] |  |  | pIC50 (HCV NS5B; [7]): ≥ 6.30; pEC50 [1, 4]: > 6.00
9 | 2-(4-Fluoro-phenyl)-6-(1H-imidazol-4-yl)-5-methoxy-benzofuran-3-carboxylic acid methylamide [Example 295] |  |  | pIC50 (HCV NS5B; [7]): ≥ 6.30; pEC50 [1, 4]: > 5.00
10 | 4-Chloro-6-[ethyl-(2-methoxy-acetyl)-amino]-2-(4-fluoro-phenyl)-5-methoxy-benzofuran-3-carboxylic acid methylamide [Example 432] |  |  | pIC50 (HCV NS5B; [5]): 5.30 to 6.30; pEC50 [1, 6]: > 5.00
11 | 5-(3-Cyano-benzyloxy)-2-(4-fluoro-phenyl)-6-(methanesulfonyl-methoxymethyl-amino)-benzofuran-3-carboxylic acid methylamide [Example 447] |  |  | pIC50 (HCV NS5B; HCV NS5B RdRp, BB7 (genotype 1b), reported as class symbols): ≥ 6.30; pEC50 [1, 4]: > 6.00
12 | 6-(3-Amino-pyrrolidin-1-yl)-2-(4-fluoro-phenyl)-5-isopropoxy-2,3-dihydro-benzofuran-3-carboxylic acid methylamide [Example 15] | 4.52 to 5.30 |  | pEC50 ([1]; Huh-7-Clone A, NS5A ELISA, 72-hour incubation, ranges of EC50): > 4.52
13 | CNC(=O)c1c(-c2ccoc2)oc2ccc(OC)cc12 [Example 1, 2-Furan-3-yl-5-methoxy-benzofuran-3-carboxylic acid methylamide] | 5.30 to 6.30 |  | EC50 ([1]; Hepatitis C virus, 72 h, read-out: Replicon (μM)): < 30 µM
14 | CNC(=O)c1c(-c2ccc(F)c(F)c2)oc2ccc(OC)cc12 [Example 3, 2-(3,4-Difluoro-phenyl)-5-methoxy-benzofuran-3-carboxylic acid methylamide] | ≥ 6.30 | > 5.00 | 
15 | CNC(=O)c1c(-c2ccc(CNC(C)=O)cc2)oc2ccc(OC(C)C)cc12 [Example 4, 2-[4-(Acetylamino-methyl)-phenyl]-5-isopropoxy-benzofuran-3-carboxylic acid methylamide] | 5.30 to 6.30 | > 4.52 | 
16 | CNC(=O)c1c(-c2ccc(O)cc2)oc2ccc(OC(C)C)cc12 [Example 5, 2-(4-Hydroxy-phenyl)-5-isopropoxy-benzofuran-3-carboxylic acid methylamide] | 5.30 to 6.30 | > 5.00 | 
17 | CNC(=O)c1c(-c2ccc(F)cc2)oc2cc(N3CCCC3)c(OC(C)C)cc12 [Example 6, 2-(4-Fluoro-phenyl)-5-isopropoxy-6-pyrrolidin-1-yl-benzofuran-3-carboxylic acid methylamide] | ≥ 6.30 | > 6.00 | 
18 | CNC(=O)c1c(-c2ccc(F)cc2)oc2ccc(OC(F)F)cc12 [Example 7, 5-Difluoromethoxy-2-(4-fluoro-phenyl)-benzofuran-3-carboxylic acid methylamide] | 5.30 to 6.30 | > 5.00 | 
19 | CNC(=O)c1c(-c2ccc(F)cc2)oc2cc(NCCOC)c(OC(C)C)cc12 [Example 8, 2-(4-Fluoro-phenyl)-5-isopropoxy-6-(2-methoxy-ethylamino)-benzofuran-3-carboxylic acid methylamide] | ≥ 6.30 | > 6.00 | 
20 | CNC(=O)c1c(-c2ccccc2)oc2ccc(C)cc12 [Example 9, 5-Methyl-2-phenyl-benzofuran-3-carboxylic acid methylamide] | 5.30 to 6.30 | > 5.00 | 
21 | CNC(=O)c1c(-c2ccc(F)cc2)oc2ccc(C)cc12 [Example 10, 5-Methyl-2-(4-fluoro-phenyl)benzofuran-3-carboxylic acid methylamide] | 5.30 to 6.30 | > 5.00 | 
22 | CNC(=O)c1c(-c2ccccc2)oc2ccc(OCC(F)(F)F)cc12 [Example 11, 2-Phenyl-5-(2,2,2-trifluoro-ethoxy)-benzofuran-3-carboxylic acid methylamide] | < 4.52 | > 4.52 | 
23 | CNC(=O)c1c(-c2ccc(F)cc2)oc2ccc(OC)cc12 [Example 12, 2-(4-Fluoro-phenyl)-5-methoxy-benzofuran-3-carboxylic acid methylamide] | ≥ 6.30 | > 5.00 | 
24 | CNC(=O)c1c(-c2ccc(F)cc2)oc2cc(Br)c(OC)cc12 [Example 13, 6-Bromo-2-(4-fluoro-phenyl)-5-methoxy-benzofuran-3-carboxylic acid methylamide] | ≥ 6.30 | > 6.00 | 
25 | CNC(=O)c1c(-c2ccccc2)oc2cc(C)c(OC)cc12 [Example 14, 5-Methoxy-6-methyl-2-phenyl-benzofuran-3-carboxylic acid methylamide] | ≥ 6.30 | > 6.00 | 
26 | CNC(=O)c1c(-c2ccc(F)cc2)oc2cc(N)c(OC(C)C)cc12 [Example 16, 6-Amino-2-(4-fluoro-phenyl)-5-isopropoxy-benzofuran-3-carboxylic acid methylamide] | ≥ 6.30 | > 5.00 | 
27 | CNC(=O)c1c(-c2ccc(F)cc2)oc2cc(NS(C)(=O)=O)c(-c3c(C)noc3C)cc12 [Example 407, 5-(3,5-Dimethyl-isoxazol-4-yl)-2-(4-fluoro-phenyl)-6-methanesulfonylamino-benzofuran-3-carboxylic acid methylamide] |  |  | pEC50 [1, 10]: > 5.00
28 | CNC(=O)c1c(-c2ccc(F)cc2)oc2cc(N(C)S(C)(=O)=O)c(OC(C)c3nccs3)cc12 (stereo not drawn) [Example 408, 2-(4-Fluoro-phenyl)-6-(methanesulfonyl-methyl-amino)-5-(1-thiazol-2-yl-ethoxy)-benzofuran-3-carboxylic acid methylamide] |  |  | pEC50 [1, 10]: > 6.00
